Laboratory results taken from US20240207236A1, “COMPOUND FOR PREVENTING OR TREATING DIABETES” (ONCOCROSS CO., LTD., priority 2021, published 2024).

Key:
Format in all cases: in vivo, mice (C57BL/6)
[1] = Drinking water intake of mice in STZ-induced insulin-resistant diabetes model; set-up: unit not given here
Method: (§1) STZ (Sigma-aldrich, S0130, 40 mg/kg b.w., in 0.1 M citrate buffer pH 4.5) was intraperitoneally administered to 9-week-old male mice (C57BL/6) once/1 day for 5 days to perform a first disease induction. After 7 weeks of the first induction, a second induction was performed using the same method as the first induction. For 5 days of an STZ administration period for the first induction, 10% sucrose was administered as drinking water. In addition, after 14 days of the second administration, blood sugar was confirmed to confirm the induction rate, and the induced animals were separated into groups. Experimental substances (R)-4-{(R)-1-[7-(3,4,5-trimethoxy-phenyl)-[1,6] naphthyridine-5-yloxy]-ethyl}pyrrolidine-2-one (BI-1002494) and cromolyn (OC-101) were administered orally into the stomach at 10 mL/kg using an oral administration syringe (sonde) before 16:00 daily for 12 weeks at a frequency of 7 days/week at doses shown in Table 1 below, respectively, and dexamethasone was orally administered as a positive control substance.

[2] = tested on: animal model of insulin-resistant diabetes; experiment: Blood sugar, tail vein blood, blood sugar meter, 4 h fasting; set-up: blood sugar, Mean: unit not given here
Method: as §1
Before disease induction, excluding week 9 of administration of experimental substances to mice in each group of Example 1 above, after 2 weeks after the first induction (based on a first administration date), and after 6 weeks and 2 weeks of the second induction (based on the first administration date), blood was collected from the tail vein and blood sugar was measured using a blood sugar meter (Accu-Check, Roche), and fasting was performed for 4 hours from 9:30 a.m. to 1:30 p.m.

[3] = tested on: animal model of insulin-resistant diabetes; experiment: Blood insulin (Mouse Insulin ELISA) and HOMA-IR
Method: as §1
(§2) After the observation period for mice of each group in Example 1 was terminated, all surviving animals were fasted in the same manner as when measuring blood sugar, and then anesthetized by inhaling isoflurane, and blood was collected from the abdominal vena cava through laparotomy. After the blood collection was completed, the veins and arteries were cut under anesthesia and exsanguinated. The collected blood was left at room temperature for 30 minutes or more and then centrifuged at 3,000 rpm for 20 minutes. Thereafter, glucose, blood urea nitrogen (BUN), and creatinine were analyzed using an automated blood biochemistry analyzer (Hitachi 3100, Hitachi Co. Ltd., Japan). Indoxyl sulfate (a substance that was mainly produced in the intestines to cause kidney damage, and a substance that caused end-stage renal failure by advancing kidney function damage in patients with renal failure during hemodialysis) was analyzed using LC MS/MS. In addition, blood insulin was analyzed according to a method represented by a commercial Mouse Insulin ELISA KIT (#AKRIN-011T, Sibayagi Co. Ltd., Japan).

[4] = tested on: animal model of insulin-resistant diabetes; experiment: Blood indoxyl sulfate by LC MS/MS; conditions: 12 weeks
Method: as §1, §2

[5] = tested on: animal model of insulin-resistant diabetes; experiment: Histopathological change of liver, kidney and pancreas (H&E); conditions: for Kidney Medullar apoptosis / Kidney Medullar mineralization / Kidney NHL / Kidney bowman's capsule hyperplasia / Kidney pappillary mineralization / Liver Apoptosis / Liver Cytoplasmic glycogen / Liver Eosinophlic focus of cellular alteration / Liver Mononuclear cell infiltrate / Liver NHL / Pancrease Apoptosis / Pancrease NHL / Pancrease islet degeneration / Pancrease islet hypertrophy / Pancrease islet, mononuclear cell infillitrate: count in group of 10 animals
Method: as §1
At the end of the observation period, the mice in each group of Example 1 were confirmed to be dead, and the liver, kidney, and pancreas were extracted and fixed with 10% neutral buffered formalin (NBF) in at least 20 times the tissue volume. The fixed tissue was sectioned to a thickness of approximately 4 mm and then produced into a paraffin block through general tissue processing and embedding processes. Thereafter, the tissue was sectioned to a thickness of 4 μm using a rotary microtome, and then H&E staining was performed, and histopathological changes were observed.

[6] = after induction of diabetic disease, 12.5-50 mg/kg
[7] = administered groups 12.5-50 mg/kg, Table 8 and FIG. 2

For `COc1cc(-c2cc3ncccc3c(O[C@H](C)[C@H]3CNC(=O)C3)n2)cc(OC)c1OC` [BI-1002494, (R)-4-{(R)-1-[7-(3,4,5-trimethoxy-phenyl)-[1,6]naphthyridine-5-yloxy]-ethyl}pyrrolidine-2-one], the “drinking water intake, Mean” value ([1]; 12.5 mg/kg/day oral, week 1) was 7.91, the “drinking water intake, Mean” value ([1]; 12.5 mg/kg/day oral, week 2) was 7.41 and the “drinking water intake, Mean” value ([1]; 12.5 mg/kg/day oral, week 4) was 7.08. The “drinking water intake, Mean” value ([1]; 12.5 mg/kg/day oral, week 5) was 7.16, the “drinking water intake, Mean” value ([1]; 12.5 mg/kg/day oral, week 6) was 7.34 and the “drinking water intake, Mean” value ([1]; 12.5 mg/kg/day oral, week 7) was 7.24. The “drinking water intake, Mean” value ([1]; 12.5 mg/kg/day oral, week 8) was 6.99, the “drinking water intake, Mean” value ([1]; 12.5 mg/kg/day oral, week 9) was 7.40 and the “drinking water intake, Mean” value ([1]; 25 mg/kg/day oral, week 0) was 7.07. The “drinking water intake, Mean” value ([1]; 25 mg/kg/day oral, week 1) was 7.62, the “drinking water intake, Mean” value ([1]; 25 mg/kg/day oral, week 3) was 7.38 and the “drinking water intake, Mean” value ([1]; 25 mg/kg/day oral, week 4) was 6.73. For the same compound, the “drinking water intake, Mean” value ([1]; 25 mg/kg/day oral, week 5) was 7.19, the “drinking water intake, Mean” value ([1]; 25 mg/kg/day oral, week 6) was 7.34 and the “drinking water intake, Mean” value ([1]; 25 mg/kg/day oral, week 7) was 7.69. For the same compound, the “drinking water intake, Mean” value ([1]; 25 mg/kg/day oral, week 8) was 7.43, the “drinking water intake, Mean” value ([1]; 25 mg/kg/day oral, week 9) was 7.54 and the “drinking water intake, Mean” value ([1]; 25 mg/kg/day oral, week 10) was 7.15. For the same compound, the “drinking water intake, Mean” value ([1]; 50 mg/kg/day oral, week 0) was 7.27, the “drinking water intake, Mean” value ([1]; 50 mg/kg/day oral, week 1) was 7.04 and the “drinking water intake, Mean” value ([1]; 50 mg/kg/day oral, week 3) was 6.95. For the same compound, the “drinking water intake, Mean” value ([1]; 50 mg/kg/day oral, week 4) was 7.13, the “drinking water intake, Mean” value ([1]; 50 mg/kg/day oral, week 5) was 6.48 and the “drinking water intake, Mean” value ([1]; 50 mg/kg/day oral, week 9) was 6.51. For the same compound, the “drinking water intake, Mean” value ([1]; 50 mg/kg/day oral, week 10) was 6.22, the “blood sugar, Mean” value ([2]; 12.5 mg/kg/day oral, value column 2 of 6, head prints only weeks 0, 4, 8, 10) was 319.5 and the “blood sugar, Mean” value ([2]; 12.5 mg/kg/day oral, week 0) was 291.1. The “blood sugar, Mean” value ([2]; 25 mg/kg/day oral, value column 2 of 6, head prints only weeks 0, 4, 8, 10) was 310.1, the “blood sugar, Mean” value ([2]; 25 mg/kg/day oral, week 0) was 301.2 and the “blood sugar, Mean” value ([2]; 50 mg/kg/day oral, value column 2 of 6, head prints only weeks 0, 4, 8, 10) was 264.5. For the same compound, the “blood sugar, Mean” value ([2]; 50 mg/kg/day oral, week 0) was 303.7, the “blood sugar compared to the positive control group” value ([2]; administered group, dose not specified) was “decreased significantly” and the “blood sugar, summary” value [2, 6] was “decreased in a dose-dependent manner”. The “HOMA-IR compared with the disease control group” value ([3]; 25 mg/kg) was “statistically significantly reduced”, the “HOMA-IR compared with the disease control group” value ([3]; 50 mg/kg) was “statistically significantly reduced” and the “insulin resistance (HOMA-IR), summary” value [3, 6] was “decreased in a dose-dependent manner”. The “Indoxyl sulfate, Mean” value ([4]; 12.5 mg/kg/day oral) was 2.2 µg/mL, the “Indoxyl sulfate, Mean” value ([4]; 25 mg/kg/day oral) was 2.2 µg/mL and the “Indoxyl sulfate, Mean” value ([4]; 50 mg/kg/day oral) was 1.9 µg/mL. For the same compound, the “Kidney Medullar apoptosis” value ([5]; 12.5 mg/kg (G4)) was 3, the “Kidney Medullar mineralization” value ([5]; 12.5 mg/kg (G4)) was 0 and the “Kidney NHL” value ([5]; 12.5 mg/kg (G4)) was 7. For the same compound, the “Kidney bowman's capsule hyperplasia” value ([5]; 12.5 mg/kg (G4)) was 0, the Kidney pappillary mineralization ([5]; 12.5 mg/kg (G4)) was 0 and the “Liver Apoptosis” value ([5]; 12.5 mg/kg (G4)) was 2. For the same compound, the “Liver Cytoplasmic glycogen” value ([5]; 12.5 mg/kg (G4)) was 1, the “Liver Eosinophlic focus of cellular alteration” value (“Liver Eosinophlic focus” for short) ([5]; 12.5 mg/kg (G4)) was 0 and the “Liver Mononuclear cell infiltrate” value ([5]; 12.5 mg/kg (G4)) was 1. For the same compound, the “Liver NHL” value ([5]; 12.5 mg/kg (G4)) was 7, the “Pancrease Apoptosis” value ([5]; 12.5 mg/kg (G4)) was 1 and the “Pancrease NHL” value ([5]; 12.5 mg/kg (G4)) was 5. For the same compound, the Pancrease islet degeneration ([5]; 12.5 mg/kg (G4)) was 2, the Pancrease islet hypertrophy ([5]; 12.5 mg/kg (G4)) was 1 and the “Pancrease islet, mononuclear cell infillitrate” value ([5]; 12.5 mg/kg (G4)) was 1. For the same compound, the “Kidney Medullar apoptosis” value ([5]; 25 mg/kg (G5)) was 2, the “Kidney Medullar mineralization” value ([5]; 25 mg/kg (G5)) was 1 and the “Kidney NHL” value ([5]; 25 mg/kg (G5)) was 7. For the same compound, the “Kidney bowman's capsule hyperplasia” value ([5]; 25 mg/kg (G5)) was 0, the Kidney pappillary mineralization ([5]; 25 mg/kg (G5)) was 0 and the “Liver Apoptosis” value ([5]; 25 mg/kg (G5)) was 3. For the same compound, the “Liver Cytoplasmic glycogen” value ([5]; 25 mg/kg (G5)) was 0, the “Liver Eosinophlic focus” value ([5]; 25 mg/kg (G5)) was 0 and the “Liver Mononuclear cell infiltrate” value ([5]; 25 mg/kg (G5)) was 2. The “Liver NHL” value ([5]; 25 mg/kg (G5)) was 7, the “Pancrease Apoptosis” value ([5]; 25 mg/kg (G5)) was 0 and the “Pancrease NHL” value ([5]; 25 mg/kg (G5)) was 8. For the same compound, the Pancrease islet degeneration ([5]; 25 mg/kg (G5)) was 1, the Pancrease islet hypertrophy ([5]; 25 mg/kg (G5)) was 1 and the “Pancrease islet, mononuclear cell infillitrate” value ([5]; 25 mg/kg (G5)) was 0. The “Kidney Medullar apoptosis” value ([5]; 50 mg/kg (G6, G7)) was 1, the “Kidney Medullar mineralization” value ([5]; 50 mg/kg (G6, G7)) was 2 and the “Kidney NHL” value ([5]; 50 mg/kg (G6, G7)) was 7. For the same compound, the “Kidney bowman's capsule hyperplasia” value ([5]; 50 mg/kg (G6, G7)) was 0, the Kidney pappillary mineralization ([5]; 50 mg/kg (G6, G7)) was 0 and the “Liver Apoptosis” value ([5]; 50 mg/kg (G6, G7)) was 2. The “Liver Cytoplasmic glycogen” value ([5]; 50 mg/kg (G6, G7)) was 0, the “Liver Eosinophlic focus” value ([5]; 50 mg/kg (G6, G7)) was 0 and the “Liver Mononuclear cell infiltrate” value ([5]; 50 mg/kg (G6, G7)) was 1. For the same compound, the “Liver NHL” value ([5]; 50 mg/kg (G6, G7)) was 8, the “Pancrease Apoptosis” value ([5]; 50 mg/kg (G6, G7)) was 0 and the “Pancrease NHL” value ([5]; 50 mg/kg (G6, G7)) was 7. The Pancrease islet degeneration ([5]; 50 mg/kg (G6, G7)) was 1, the Pancrease islet hypertrophy ([5]; 50 mg/kg (G6, G7)) was 2 and the “Pancrease islet, mononuclear cell infillitrate” value ([5]; 50 mg/kg (G6, G7)) was 0. For the same compound, the “cytoplasmic glycogen in the liver” value [5, 7] was “reduced in the liver” and the “medullar apoptosis in the kidney” value [5, 7] was “reduced in the kidney in a dose-dependent manner”.
